Experimental data as given in patent publication US20220395553A1, “CXCR4 ANTAGONIST PEPTIDES” (COHBAR, INC., priority 2019, published 2022).
Square brackets hold non-standard residues; d marks the D form. Peptide text beside a SMILES is read from it.

Experiments:
[1] = target: T1, human CXCR4 (Homo sapiens, UniProt P61073); experiment: CXCR4/CXCL12 binding, HTRF format, single concentration (Example 23); parameters: host or cells: HEK293 (Tag-lite CXCR4 cells, frozen aliquots, transient expression); conditions: 15 nM CXCR4R fluorescent probe, 3 hours, HEK293 Tag-lite CXCR4 cells
T1 sequence (P61073 whole entry): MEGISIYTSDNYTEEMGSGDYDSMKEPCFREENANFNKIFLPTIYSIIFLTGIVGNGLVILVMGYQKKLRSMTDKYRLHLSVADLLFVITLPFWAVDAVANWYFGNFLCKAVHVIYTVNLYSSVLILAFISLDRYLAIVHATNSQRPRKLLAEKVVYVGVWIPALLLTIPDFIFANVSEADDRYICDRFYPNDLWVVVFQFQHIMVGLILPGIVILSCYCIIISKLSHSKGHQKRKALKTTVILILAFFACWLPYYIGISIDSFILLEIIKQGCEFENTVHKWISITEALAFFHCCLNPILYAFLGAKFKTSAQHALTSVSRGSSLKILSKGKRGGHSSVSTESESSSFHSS
Method in brief: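 Tag-lite CXCR4 cells were exposed to peptide at 400 nM final with 15 nM (EC80) fluorescent CXCR4 probe for 3 h at room temperature. HTRF was read, and the 665/620 nm ratio ×10,000 measured probe bound to terbium-labelled receptor.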

[2] = target: T1, human CXCR4; experiment: IC50 for inhibition of CXCR4 activation, β-Arrestin recruitment (Example 22); assay type: cell-based; parameters: host or cells: C2C12 (mouse myoblast) CXCR4 β-Arrestin PathHunter cell line
Experimental: The assay was run with the DiscoverX protocol. β-Arrestin recruitment assays were performed by Eurofins-DiscoverX (Fremont, Calif.) using C2C12 CXCR4 β-Arrestin cell line (co-expressing ProLink tagged human CXCR4 and Enzyme Acceptor tagged β-Arrestin) and PathHunter detection kit. Peptides were initially prepared as 1 mM stock in H2O and tested in ten (10)-step concentration response curves using 3-fold dilution steps with 1 μM as highest concentration; a concentration range of 1 μM-0.05 nM was tested. C2C12 CXCR4 β-Arrestin cells were seed onto 384-well plates in standard medium. […] At the end of the 90 min incubation period, β-Arrestin recruitment in response to various treatments was quantified using a chemiluminescent complementation reporter assay to measure association of tagged human […] (ProLink tag) and tagged β-Arrestin (Enzyme Acceptor tag).

[3] = system: CXCR4/CXCL12 induced p-MEK; experiment: CXCR4/CXCL12 induced p-MEK in Jurkat cells (ELISA); assay type: cell-based, human; conditions: 5 nM CXCL12, 5 min
Experimental: The assay was performed following a protocol similar to that described by Peng, et al., Mol Cancer Ther., 14 480-90 (2015), incorporated herein by reference. […] Jurkat cells were resuspended in standard growth media (RPMI+GlutaMax media; Gibco/Thermo Fisher Scientific; Gaithersburg, Md.) containing 10% FBS and 1% penicillin/streptomycin. Assays were performed using fresh or conditioned media (media cultured overnight in presence of Jurkat cells) to resuspend cells at density of 2×10^6 cells/ml and […] of cell suspension was immediately placed in 1.7 ml microfuge tubes. […] Following the 5 min incubation, cells were centrifuged at 1000×g for 4 min at 4° C. The supernatant was removed and the cells were rinsed with 1 ml of HBSS containing calcium and magnesium. The HBSS was removed and the cells were immediately lysed in 150 l of lysis buffer included with Phospho-MEK1 (Ser217/221) Sandwich ELISA kit (Cell Signaling Technology; Danvers, Mass.); lysis buffer was supplemented with 1 m M PMSF (Millipore-Sigma; Saint Louis, Mo.) and Halt protease/phosphatase inhibitor cocktail (Thermo-Fisher; Waltham, Mass.) prior to use. The samples were then placed on ice for 10 min and vortexed periodically. Following the lysis step, the samples were centrifuged at 12,500 rpm for 10 min at 4° C. p-MEK expression in each of the samples was then measure using Phospho-MEK1 (Ser217/221) Sandwich ELISA kit according to manufacturer's instructions. Absorbance was measured using a Cytation 3 plate reader at […] (BioTek; Winooski, Vt.).

| Percent Inhibition of CXCR4/CXCL12 Binding (400 nM peptide) [1] | IC50 [2] | Structure (SMILES) | Percent Inhibition of CXCR4/CXCL12 Induced p-MEK (100 nM Test Article) [3] | Percent Inhibition of CXCR4/CXCL12 Induced p-MEK (1 μM Test Article) [3] |
| --- | --- | --- | --- | --- |
| 56% | 4 nM | CC(C)C[C@H](NC(=O)[C@H](CO)NC(=O)[C@H](CO)NC(=O)[C@H](CCCNC(=N)N)NC(=O)[C@@H](C)NC(=O)[C@H](CO)NC(=O)[C@H](Cc1c[nH]cn1)NC(=O)[C@H](Cc1c[nH]cn1)NC(=O)[C@H](Cc1ccccc1)NC(=O)[C@H](CCCNC(=N)N)NC(=O)[C@H](CCC(=O)O)NC(=O)[C@@H](N)CC(C)C)C(=O)N[C@@H](CCCNC(=N)N)C(=O)N1CCC[C@H]1C(=O)N[C@@H](Cc1ccc(O)cc1)C(=O)N[C@H](C(=O)N[C@@H](CCCCN)C(=O)O)[C@@H](C)O [compound 55] (H-LERFHHS[dA]RSSLRPYTK-OH; N-terminus and C-terminus assumed) | 16% | 72% |
| −3% | 3 nM | CC(C)C[C@H](NC(=O)[C@H](CO)NC(=O)[C@H](CO)NC(=O)[C@H](CCCNC(=N)N)NC(=O)[C@@H](NC(=O)[C@H](CO)NC(=O)[C@H](Cc1c[nH]cn1)NC(=O)[C@H](Cc1c[nH]cn1)NC(=O)[C@H](Cc1ccc(O)cc1)NC(=O)[C@H](CCCNC(=N)N)NC(=O)[C@H](CCCNC(=N)N)NC(=O)[C@@H](N)CC(C)C)C(C)C)C(=O)N[C@@H](CCCNC(=N)N)C(=O)N1CCC[C@H]1C(=O)N[C@@H](Cc1ccccc1)C(=O)N[C@H](C(=O)N[C@@H](CCCCN)C(=O)O)[C@@H](C)O [compound 59] (H-LRRYHHSVRSSLRPFTK-OH; N-terminus and C-terminus assumed) | 43% | 93% |
| 54% | 8 nM | CC(C)C[C@H](NC(=O)[C@H](CO)NC(=O)[C@H](CO)NC(=O)[C@H](CCCNC(=N)N)NC(=O)[C@@H](C)NC(=O)[C@H](CO)NC(=O)[C@H](Cc1c[nH]cn1)NC(=O)[C@H](Cc1c[nH]cn1)NC(=O)[C@H](Cc1ccc(O)cc1)NC(=O)[C@H](CCCNC(=N)N)NC(=O)[C@H](CCC(=O)O)NC(=O)[C@@H](N)CC(C)C)C(=O)N[C@@H](CCCNC(=N)N)C(=O)N1CCC[C@H]1C(=O)N[C@@H](Cc1ccccc1)C(=O)N[C@H](C(=O)N[C@@H](CCCCN)C(=O)O)[C@@H](C)O [compound 61] (H-LERYHHS[dA]RSSLRPFTK-OH; N-terminus and C-terminus assumed) | 15% | 46% |
| 3% | 14 nM | CC(C)C[C@H](NC(=O)[C@H](CO)NC(=O)[C@H](CO)NC(=O)[C@H](CCCNC(=N)N)NC(=O)[C@@H](NC(=O)[C@H](CO)NC(=O)[C@H](Cc1c[nH]cn1)NC(=O)[C@H](Cc1c[nH]cn1)NC(=O)[C@H](Cc1ccc(O)cc1)NC(=O)[C@H](CCCNC(=N)N)NC(=O)[C@H](CCCNC(=N)N)NC(=O)[C@@H](N)CC(C)C)C(C)C)C(=O)N[C@@H](CC(=O)O)C(=O)N1CCC[C@H]1C(=O)N[C@@H](Cc1ccc(O)cc1)C(=O)N[C@H](C(=O)N[C@@H](CCCCN)C(=O)O)[C@@H](C)O [compound 67] (H-LRRYHHSVRSSLDPYTK-OH; N-terminus and C-terminus assumed) | −8% | 42% |

More lines, now with the values behind:

| Structure (SMILES) | Percent Inhibition of CXCR4/CXCL12 Binding (400 nM peptide) [1] | IC50 [2] | Percent Inhibition of CXCR4/CXCL12 Induced p-MEK (100 nM Test Article) [3] | Percent Inhibition of CXCR4/CXCL12 Induced p-MEK (1 μM Test Article) [3] |
| --- | --- | --- | --- | --- |
| CC(C)C[C@H](NC(=O)[C@H](CO)NC(=O)[C@H](CO)NC(=O)[C@H](CCCNC(=N)N)NC(=O)[C@@H](NC(=O)[C@H](CO)NC(=O)[C@H](Cc1c[nH]cn1)NC(=O)[C@H](Cc1c[nH]cn1)NC(=O)[C@H](Cc1ccc(O)cc1)NC(=O)[C@H](CCCNC(=N)N)NC(=O)[C@H](CCCNC(=N)N)NC(=O)[C@@H](C)N)C(C)C)C(=O)N[C@@H](CCCNC(=N)N)C(=O)N1CCC[C@H]1C(=O)N[C@@H](Cc1ccc(O)cc1)C(=O)N[C@H](C(=O)N[C@@H](CCCCN)C(=O)O)[C@@H](C)O [compound 33] (H-[dA]RRYHHSVRSSLRPYTK-OH; N-terminus and C-terminus assumed) | 77% | 7 nM | 7% | 42% |
| CC(C)C[C@H](NC(=O)[C@H](CO)NC(=O)[C@H](CO)NC(=O)[C@H](CCCNC(=N)N)NC(=O)[C@@H](NC(=O)[C@H](CO)NC(=O)[C@H](Cc1c[nH]cn1)NC(=O)[C@H](Cc1c[nH]cn1)NC(=O)[C@H](Cc1ccc(O)cc1)NC(=O)[C@H](CCCNC(=N)N)NC(=O)[C@H](CCC(=O)O)NC(=O)[C@@H](C)N)C(C)C)C(=O)N[C@@H](CCCNC(=N)N)C(=O)N1CCC[C@H]1C(=O)N[C@@H](Cc1ccc(O)cc1)C(=O)N[C@H](C(=O)N[C@@H](CCCCN)C(=O)O)[C@@H](C)O [compound 34] (H-[dA]ERYHHSVRSSLRPYTK-OH; N-terminus and C-terminus assumed) | −17% | > 1000 nM | −1% | 2% |
| CC(C)C[C@H](NC(=O)[C@H](CO)NC(=O)[C@H](CO)NC(=O)[C@H](CCCNC(=N)N)NC(=O)[C@@H](NC(=O)[C@H](CO)NC(=O)[C@H](Cc1c[nH]cn1)NC(=O)[C@H](Cc1c[nH]cn1)NC(=O)[C@H](Cc1ccc(O)cc1)NC(=O)[C@H](CC(=O)O)NC(=O)[C@H](CCCNC(=N)N)NC(=O)[C@@H](N)CC(C)C)C(C)C)C(=O)N[C@@H](CCCNC(=N)N)C(=O)N1CCC[C@H]1C(=O)N[C@@H](Cc1ccc(O)cc1)C(=O)N[C@H](C(=O)N[C@@H](CCCCN)C(=O)O)[C@@H](C)O [compound 36] (H-LRDYHHSVRSSLRPYTK-OH; N-terminus and C-terminus assumed) | −11% | > 1000 nM | 22% | −5% |
| CC(C)C[C@H](NC(=O)[C@H](CO)NC(=O)[C@H](CO)NC(=O)[C@H](CCCNC(=N)N)NC(=O)[C@@H](C)NC(=O)[C@@H](NC(=O)[C@H](Cc1c[nH]cn1)NC(=O)[C@H](Cc1c[nH]cn1)NC(=O)[C@H](Cc1ccc(O)cc1)NC(=O)[C@H](CCCNC(=N)N)NC(=O)[C@H](CCC(=O)O)NC(=O)[C@@H](N)CC(C)C)[C@@H](C)O)C(=O)N[C@@H](CCCNC(=N)N)C(=O)N1CCC[C@H]1C(=O)N[C@@H](Cc1ccc(O)cc1)C(=O)N[C@H](C(=O)N[C@@H](CCCCN)C(=O)O)[C@@H](C)O [compound 40] (H-LERYHHT[dA]RSSLRPYTK-OH; N-terminus and C-terminus assumed) | 76% | 5 nM | 33% | 94% |
| CC(C)C[C@H](NC(=O)[C@H](CO)NC(=O)[C@H](CO)NC(=O)[C@H](CCCNC(=N)N)NC(=O)[C@@H](C)NC(=O)[C@H](CO)NC(=O)[C@H](Cc1c[nH]cn1)NC(=O)[C@H](CC(N)=O)NC(=O)[C@H](Cc1ccc(O)cc1)NC(=O)[C@H](CCCNC(=N)N)NC(=O)[C@H](CCC(=O)O)NC(=O)[C@@H](N)CC(C)C)C(=O)N[C@@H](CCCNC(=N)N)C(=O)N1CCC[C@H]1C(=O)N[C@@H](Cc1ccc(O)cc1)C(=O)N[C@H](C(=O)N[C@@H](CCCCN)C(=O)O)[C@@H](C)O [compound 43] (H-LERYNHS[dA]RSSLRPYTK-OH; N-terminus and C-terminus assumed) | 53% | 14 nM | 5% | 40% |
